“And” between values parts separate entries of the source, which are not always exact repeats. Equal entries are not always repeated.

Data set [1] can be described thus: Urinary excretion of phenolic metabolites after intake of the GCPE nutraceutical. The settings on record: for Urinary excretion / Cumulative urinary excretion, Total 0–24 h: urine; for Cumulative urinary excretion, Total 0–24 h: mean ± SEM, n = 9.
Data set [2] in a line: Plasma pharmacokinetics of phenolic metabolites after intake of the GCPE nutraceutical (LC-MS-QToF). The settings on record: for Cmax: mean ± SEM, n = 9.
The mark [3] stands for this setting: week 0, GCPE nutraceutical with 300 mg hydroxycinnamic acids.
Setting [4] is: week 0, first peak where biphasic.
[5] abbreviates: week 8, GCPE nutraceutical with 300 mg hydroxycinnamic acids.
Where [6] appears, read: week 8, first peak where biphasic.

Turning to `O=C(O)CCc1ccc(OS(=O)(=O)O)c(O)c1` [DHCA-4′-sulfate, 3-(3′-Hydroxyphenyl)propanoic acid-4′-sulfate], the Urinary excretion in data set [1] (week 0) turned out to be 8 µmol/24 h; in data set [1] (week 8) it was 10 µmol/24 h. For the same compound, the figures for the “Cumulative urinary excretion, Total 0–24 h” value (“Cumulative urinary excretion” for short) in data set [1] (week 0) and in data set [1] (week 8) were 8 ± 2 µmol and 10 ± 2 µmol, respectively. The Amount excreted in urine, 0- 3 h was 0.4 ± 0.1 µmol in data set [1] (week 0, interval 0–3 h) and 0.6 ± 0.2 µmol in data set [1] (week 8, interval 0–3 h). Also, the Amount excreted in urine, 3-6 h in data set [1] (week 0, interval 3–6 h) came to 0.2 ± 0.04 µmol; in data set [1] (week 8, interval 3–6 h) it was 0.2 ± 0.04 µmol. For the same compound, the Amount excreted in urine, 6-9 h was 0.5 ± 0.2 µmol in data set [1] (week 0, interval 6–9 h) and 0.5 ± 0.1 µmol in data set [1] (week 8, interval 6–9 h). Moreover, the Amount excreted in urine, 9-11 h in data set [1] (week 0, interval 9–11 h) amounted to 0.5 ± 0.2 µmol; in data set [1] (week 8, interval 9–11 h), 0.6 ± 0.2 µmol. Further, the Amount excreted in urine, 11-24 h in data set [1] (week 0, interval 11–24 h) is 2.6 ± 0.8 µmol; in data set [1] (week 8, interval 11–24 h) it was 1.7 ± 0.5 µmol. Also, the “AUC0–24h” value was 2.3 ± 0.5 µM/min in data set [2] (week 0) and 2.1 ± 0.4 µM/min in data set [2] (week 8). Also, the Cmax (in general, the highest concentration seen after dosing) came out at 340 ± 90 nM in data set [2] (setting [3]) and 330 ± 70 nM in data set [2] (setting [5]). Also, the “Tmax (h) or Range” value in data set [2] (setting [4]) was 7.9 ± 0.5 h; in data set [2] (setting [6]), 8.4 ± 0.6 h.

With `COc1cc(CCC(=O)O)ccc1O[C@@H]1O[C@H](C(=O)O)[C@@H](O)[C@H](O)[C@H]1O` [DHFA-4′-glucuronide, 3-(3′-Methoxyphenyl)propanoic acid-4′-glucuronide], the Urinary excretion in data set [1] (week 0) is 5 µmol/24 h; in data set [1] (week 8), 7 µmol/24 h. In addition, the entries for the “Cumulative urinary excretion” value in data set [1] (week 0) and in data set [1] (week 8) were 5 ± 1 µmol and 7 ± 1 µmol, respectively. Besides, the Amount excreted in urine, 0- 3 h in data set [1] (week 0, interval 0–3 h) was found to be 0.15 ± 0.05 µmol; in data set [1] (week 8, interval 0–3 h) it was 0.21 ± 0.06 µmol. The Amount excreted in urine, 3-6 h in data set [1] (week 0, interval 3–6 h) was determined as 0.16 ± 0.05 µmol; in data set [1] (week 8, interval 3–6 h), 0.34 ± 0.09 µmol. Besides, the Amount excreted in urine, 6-9 h stood at 1 ± 0.4 µmol in data set [1] (week 0, interval 6–9 h) and 1 ± 0.2 µmol in data set [1] (week 8, interval 6–9 h). In addition, the Amount excreted in urine, 9-11 h in data set [1] (week 0, interval 9–11 h) came out at 0.8 ± 0.1 µmol; in data set [1] (week 8, interval 9–11 h) it was 0.8 ± 0.2 µmol. In addition, the Amount excreted in urine, 11-24 h in data set [1] (week 0, interval 11–24 h) came out at 1.2 ± 0.2 µmol; in data set [1] (week 8, interval 11–24 h) it was 1 ± 0.3 µmol. The “AUC0–24h” value in data set [2] (week 0) came out at 1.1 ± 0.3 µM/min; in data set [2] (week 8) it was 0.8 ± 0.1 µM/min. In addition, the Cmax in data set [2] (setting [3]) was 130 ± 30 nM; in data set [2] (setting [5]), 120 ± 20 nM. Further, the “Tmax (h) or Range” value in data set [2] (setting [4]) and in data set [2] (setting [6]) was 8.7 ± 0.6 h throughout.

`COc1cc(CCC(=O)O)ccc1OS(=O)(=O)O` [DHFA-4′-sulfate, 3-(3′-Methoxyphenyl)propanoic acid-4′-sulfate]: the “Cumulative urinary excretion” value in data set [1] (week 0) is reported as 10 ± 2 µmol; in data set [1] (week 8), 9 ± 2 µmol. In addition, the Amount excreted in urine, 0- 3 h in data set [1] (week 0, interval 0–3 h) worked out at 0.5 ± 0.1 µmol; in data set [1] (week 8, interval 0–3 h), 0.6 ± 0.1 µmol. Besides, the Amount excreted in urine, 3-6 h came to 0.5 ± 0.1 µmol in data set [1] (week 0, interval 3–6 h) and 0.8 ± 0.2 µmol in data set [1] (week 8, interval 3–6 h). Besides, the Amount excreted in urine, 6-9 h in data set [1] (week 0, interval 6–9 h) came to 3.4 ± 1.2 µmol; in data set [1] (week 8, interval 6–9 h), 2 ± 1 µmol. In addition, the Amount excreted in urine, 9-11 h in data set [1] (week 0, interval 9–11 h) was found to be 2.1 ± 0.5 µmol; in data set [1] (week 8, interval 9–11 h), 3 ± 1 µmol. In addition, the Amount excreted in urine, 11-24 h in data set [1] (week 0, interval 11–24 h) was found to be 3.5 ± 0.8 µmol; in data set [1] (week 8, interval 11–24 h), 2.6 ± 0.8 µmol. In addition, the “AUC0–24h” value amounted to 1.5 ± 0.7 µM/min in data set [2] (week 0) and 1.1 ± 0.3 µM/min in data set [2] (week 8). Moreover, the Cmax in data set [2] (setting [3]) is 190 ± 80 nM; in data set [2] (setting [5]), 170 ± 50 nM. Moreover, the “Tmax (h) or Range” value in data set [2] (setting [4]) is given as 8.1 ± 0.4 h; in data set [2] (setting [6]) it was 8.4 ± 0.6 h.

For the compound `COc1ccc(C=CC(=O)O)cc1OS(=O)(=O)O` [iFA-3′-sulfate, 4′-Methoxycinnamic acid-3′-sulfate], the “Cumulative urinary excretion” value is on record as 1.1 ± 0.3 µmol in data set [1] (week 0) and 2.1 ± 0.9 µmol in data set [1] (week 8). In addition, the Amount excreted in urine, 0- 3 h in data set [1] (week 0, interval 0–3 h) is 0.4 ± 0.1 µmol; in data set [1] (week 8, interval 0–3 h) it was 0.34 ± 0.07 µmol. In addition, the Amount excreted in urine, 3-6 h in data set [1] (week 0, interval 3–6 h) came to 0.07 ± 0.04 µmol; in data set [1] (week 8, interval 3–6 h), 0.1 ± 0.03 µmol. Moreover, the Amount excreted in urine, 6-9 h in data set [1] (week 0, interval 6–9 h) is 0.24 ± 0.08 µmol; in data set [1] (week 8, interval 6–9 h), 0.32 ± 0.06 µmol. Moreover, the Amount excreted in urine, 9-11 h in data set [1] (week 0, interval 9–11 h) was 0.09 ± 0.03 µmol; in data set [1] (week 8, interval 9–11 h) it was 0.3 ± 0.1 µmol. Moreover, the Amount excreted in urine, 11-24 h in data set [1] (week 0, interval 11–24 h) was 0.4 ± 0.1 µmol; in data set [1] (week 8, interval 11–24 h), 1 ± 0.7 µmol.

As to Coumaroylquinic acid, the “Cumulative urinary excretion” value in data set [1] (week 0) amounted to 0.14 ± 0.03 µmol; in data set [1] (week 0, listed as coumaroylquinic acid), 0.14 µmol; in data set [1] (week 8) it was 0.10 ± 0.02 µmol; in data set [1] (week 8, listed as coumaroylquinic acid), 0.10 µmol. The Amount excreted in urine, 0- 3 h came out at 0.03 ± 0.01 µmol in data set [1] (week 0, interval 0–3 h) and 0.009 ± 0.003 µmol in data set [1] (week 8, interval 0–3 h). Besides, the Amount excreted in urine, 3-6 h in data set [1] (week 0, interval 3–6 h) came out at 0.015 ± 0.003 µmol. The Amount excreted in urine, 6-9 h is 0.017 ± 0.006 µmol in data set [1] (week 0, interval 6–9 h) and 0.014 ± 0.002 µmol in data set [1] (week 8, interval 6–9 h). Moreover, the Amount excreted in urine, 9-11 h in data set [1] (week 0, interval 9–11 h) came out at 0.015 ± 0.004 µmol; in data set [1] (week 8, interval 9–11 h), 0.012 ± 0.004 µmol. For the same compound, the Amount excreted in urine, 11-24 h in data set [1] (week 0, interval 11–24 h) came out at 0.06 ± 0.02 µmol; in data set [1] (week 8, interval 11–24 h), 0.06 ± 0.02 µmol.

Regarding Dihydrocoumaroylquinic acid, the Urinary excretion turned out to be 0.22 µmol/24 h in data set [1] (week 0) and 0.17 µmol/24 h in data set [1] (week 8). Further, the Amount excreted in urine, 11-24 h is 0.12 µmol and 0.14 µmol in data set [1] (week 0, interval 11–24 h); 0.09 µmol and 0.12 µmol in data set [1] (week 8, interval 11–24 h). Further, the Amount excreted in urine, 0- 3 h in data set [1] (week 8, interval 0–3 h) is 0.03 µmol and 0.017 µmol. Further, in data set [1] (week 8, interval 3–6 h), the Amount excreted in urine, 3-6 h is 0.009 µmol and 0.01 µmol.

The values above are taken from article PMC9230201, “Sustained Consumption of a Decaffeinated Green Coffee Nutraceutical Has Limited Effects on Phenolic Metabolism and Bioavailability in Overweight/Obese Subjects” (Nutrients, 2022).
